Key:
Assay in all cases: relative viability (nuclei count vs DMSO), 5 days (fraction); higher = more cells survive
[1] = test system: NCI-H1437
In short: (§1)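 Lung cancer cell lines in 1536-well plates were dosed by pin tool the day after seeding, either with one drug alone or with a fixed anchor-drug dose plus five library-drug doses (not always all listed) in √10 steps. After 5 days, cells were fixed and their nuclei stained in one step (final 0.05% Triton X-100, 1% formaldehyde, 1 ug/ml Hoechst), then counted on 4× images. Relative viability is the nuclei count in treated wells divided by that in vehicle wells. Values are medians of duplicate plates.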

[2] = test system: HCC-827
In short: as §1

[3] = test system: CAL-12T
In short: as §1

[4] = test system: NCI-H322M
In short: as §1

[5] = test system: NCI-H23
In short: as §1

[6] = test system: LCLC-103H
In short: as §1

[7] = test system: 201T
In short: as §1

[8] = test system: COR-L 105
In short: as §1

[9] = test system: LC-2-ad
In short: as §1

[10] = test system: LK-2
In short: as §1

[11] = test system: NCI-H2228
In short: as §1

[12] = test system: HCC-15
In short: as §1

[13] = test system: UMC-11
In short: as §1

[14] = test system: H3255
In short: as §1

[15] = test system: LXF-289
In short: as §1

[16] = test system: NCI-H2405
In short: as §1

[17] = test system: HARA
In short: as §1

[18] = test system: BEN
In short: as §1

[19] = test system: NCI-H2085
In short: as §1

[20] = test system: RERF-LC-KJ
In short: as §1

[21] = test system: LU99A
In short: as §1

[22] = test system: NCI-H1651
In short: as §1

Question: How did the relative viability ([1]; first compound 0.08 µM) turn out when `Cc1cnc(-c2cnc(NCCNc3ccc(C#N)cn3)nc2-c2ccc(Cl)cc2Cl)[nH]1` + O=C(CCCCCCC(=O)Nc1ccccc1)NO [Vorinostat] (partner 1 µM) was run?
Answer: 0.829

Question: What about the relative viability ([1]; first compound 0.253 µM) of the same compound?
Answer: 0.774

Question: And the relative viability ([1]; first compound 0.8 µM)?
Answer: 0.828

Question: And the relative viability ([1]; first compound 2.53 µM)?
Answer: 0.853

Question: And the relative viability ([2]; first compound 0.08 µM)?
Answer: 0.85

Question: And the relative viability ([2]; first compound 0.253 µM)?
Answer: 0.306

Question: And the relative viability ([2]; first compound 0.8 µM)?
Answer: 0.827

Question: What about the relative viability ([2]; first compound 2.53 µM) of the same compound?
Answer: 0.871

Question: And the relative viability ([3]; first compound 0.08 µM)?
Answer: 0.928

Question: And the relative viability ([3]; first compound 0.253 µM)?
Answer: 0.702

Question: What about the relative viability ([3]; first compound 0.8 µM) of the same compound?
Answer: 0.848

Question: What about the relative viability ([3]; first compound 2.53 µM) of the same compound?
Answer: 0.807

Question: What about the relative viability ([4]; first compound 0.08 µM) of the same compound?
Answer: 0.843

Question: And the relative viability ([4]; first compound 0.253 µM)?
Answer: 0.878

Question: And the relative viability ([4]; first compound 0.8 µM)?
Answer: 0.874

Question: What about the relative viability ([4]; first compound 2.53 µM) of the same compound?
Answer: 1.53

Question: What about the relative viability ([5]; first compound 0.08 µM) of the same compound?
Answer: 0.568

Question: What about the relative viability ([5]; first compound 0.253 µM) of the same compound?
Answer: 0.475

Question: And the relative viability ([5]; first compound 0.8 µM)?
Answer: 0.575

Question: What about the relative viability ([5]; first compound 2.53 µM) of the same compound?
Answer: 0.529

Question: What about the relative viability ([6]; first compound 0.08 µM) of the same compound?
Answer: 0.728

Question: What about the relative viability ([6]; first compound 0.253 µM) of the same compound?
Answer: 0.541

Question: What about the relative viability ([6]; first compound 0.8 µM) of the same compound?
Answer: 0.689

Question: What about the relative viability ([6]; first compound 2.53 µM) of the same compound?
Answer: 0.698

Question: And the relative viability ([7]; first compound 0.08 µM)?
Answer: 1.01

Question: And the relative viability ([7]; first compound 0.8 µM)?
Answer: 0.977

Question: What about the relative viability ([7]; first compound 2.53 µM) of the same compound?
Answer: 0.912

Question: And the relative viability ([8]; first compound 0.08 µM)?
Answer: 0.942

Question: And the relative viability ([8]; first compound 0.253 µM)?
Answer: 0.77

Question: And the relative viability ([8]; first compound 0.8 µM)?
Answer: 0.596

Question: What about the relative viability ([8]; first compound 2.53 µM) of the same compound?
Answer: 0.663

Question: And the relative viability ([9]; first compound 0.08 µM)?
Answer: 0.708

Question: What about the relative viability ([9]; first compound 0.8 µM) of the same compound?
Answer: 0.705

Question: What about the relative viability ([9]; first compound 2.53 µM) of the same compound?
Answer: 0.603

Question: What about the relative viability ([10]; first compound 0.08 µM) of the same compound?
Answer: 0.274

Question: And the relative viability ([10]; first compound 0.253 µM)?
Answer: 0.331

Question: And the relative viability ([10]; first compound 0.8 µM)?
Answer: 0.286

Question: And the relative viability ([10]; first compound 2.53 µM)?
Answer: 0.318

Question: What about the relative viability ([11]; first compound 0.08 µM) of the same compound?
Answer: 0.891

Question: And the relative viability ([11]; first compound 0.253 µM)?
Answer: 0.642

Question: What about the relative viability ([11]; first compound 0.8 µM) of the same compound?
Answer: 0.668

Question: And the relative viability ([11]; first compound 2.53 µM)?
Answer: 0.693

Question: And the relative viability ([12]; first compound 0.08 µM)?
Answer: 0.832

Question: And the relative viability ([12]; first compound 0.253 µM)?
Answer: 0.818

Question: What about the relative viability ([12]; first compound 0.8 µM) of the same compound?
Answer: 0.817

Question: What about the relative viability ([12]; first compound 2.53 µM) of the same compound?
Answer: 0.829

Question: What about the relative viability ([13]; first compound 0.08 µM) of the same compound?
Answer: 0.403

Question: And the relative viability ([13]; first compound 0.253 µM)?
Answer: 0.387

Question: And the relative viability ([13]; first compound 0.8 µM)?
Answer: 0.411

Question: What about the relative viability ([13]; first compound 2.53 µM) of the same compound?
Answer: 0.511

Question: And the relative viability ([14]; first compound 0.08 µM)?
Answer: 0.599

Question: And the relative viability ([14]; first compound 0.253 µM)?
Answer: 0.717

Question: What about the relative viability ([14]; first compound 0.8 µM) of the same compound?
Answer: 0.754

Question: What about the relative viability ([14]; first compound 2.53 µM) of the same compound?
Answer: 0.829

Question: What about the relative viability ([15]; first compound 0.08 µM) of the same compound?
Answer: 0.737

Question: And the relative viability ([15]; first compound 0.253 µM)?
Answer: 0.693

Question: And the relative viability ([15]; first compound 0.8 µM)?
Answer: 0.734

Question: What about the relative viability ([15]; first compound 2.53 µM) of the same compound?
Answer: 0.846

Question: And the relative viability ([16]; first compound 0.08 µM)?
Answer: 1.02

Question: What about the relative viability ([16]; first compound 0.253 µM) of the same compound?
Answer: 0.985

Question: What about the relative viability ([16]; first compound 0.8 µM) of the same compound?
Answer: 0.909

Question: And the relative viability ([16]; first compound 2.53 µM)?
Answer: 0.661

Question: What about the relative viability ([17]; first compound 0.08 µM) of the same compound?
Answer: 0.659

Question: What about the relative viability ([17]; first compound 0.253 µM) of the same compound?
Answer: 0.612

Question: What about the relative viability ([17]; first compound 0.8 µM) of the same compound?
Answer: 0.487

Question: What about the relative viability ([17]; first compound 2.53 µM) of the same compound?
Answer: 0.492

Question: What about the relative viability ([18]; first compound 0.08 µM) of the same compound?
Answer: 0.575

Question: What about the relative viability ([18]; first compound 0.253 µM) of the same compound?
Answer: 0.559

Question: And the relative viability ([18]; first compound 0.8 µM)?
Answer: 0.595

Question: What about the relative viability ([18]; first compound 2.53 µM) of the same compound?
Answer: 0.559

Question: What about the relative viability ([19]; first compound 0.08 µM) of the same compound?
Answer: 0.886

Question: What about the relative viability ([19]; first compound 0.253 µM) of the same compound?
Answer: 0.769

Question: What about the relative viability ([19]; first compound 0.8 µM) of the same compound?
Answer: 0.824

Question: And the relative viability ([19]; first compound 2.53 µM)?
Answer: 0.997

Question: And the relative viability ([20]; first compound 0.08 µM)?
Answer: 0.815

Question: What about the relative viability ([20]; first compound 0.253 µM) of the same compound?
Answer: 0.565

Question: And the relative viability ([20]; first compound 0.8 µM)?
Answer: 0.58

Question: What about the relative viability ([20]; first compound 2.53 µM) of the same compound?
Answer: 0.677

Question: And the relative viability ([21]; first compound 0.08 µM)?
Answer: 0.592

Question: What about the relative viability ([21]; first compound 0.253 µM) of the same compound?
Answer: 0.523

Question: What about the relative viability ([21]; first compound 0.8 µM) of the same compound?
Answer: 0.535

Question: And the relative viability ([21]; first compound 2.53 µM)?
Answer: 0.559

Question: What about the relative viability ([22]; first compound 0.08 µM) of the same compound?
Answer: 0.539

Question: And the relative viability ([22]; first compound 0.253 µM)?
Answer: 0.459

Question: And the relative viability ([22]; first compound 0.8 µM)?
Answer: 0.537

Question: What about the relative viability ([22]; first compound 2.53 µM) of the same compound?
Answer: 0.58
